{"source": "ChEMBL document CHEMBL1201862", "about": "“PubChem BioAssay data set” (2004)", "assay_in_all_cases": "NCI tumour cell line growth inhibition, 48 h", "key": {"SK-MEL-2": {"test_system": "SK-MEL-2"}, "TK-10": {"test_system": "TK-10"}, "OVCAR-4": {"test_system": "OVCAR-4"}, "MDA-MB-435": {"test_system": "MDA-MB-435"}, "OVCAR-5": {"test_system": "OVCAR-5"}, "KM12": {"test_system": "KM12"}, "HT-29": {"test_system": "HT-29"}, "CCRF-CEM": {"test_system": "CCRF-CEM"}, "SF-539": {"test_system": "SF-539"}, "MDA-N": {"test_system": "MDA-N"}, "SF-295": {"test_system": "SF-295"}, "RPMI-8226": {"test_system": "RPMI-8226"}, "OVCAR-8": {"test_system": "OVCAR-8"}, "SNB-19": {"test_system": "SNB-19"}, "ACHN": {"test_system": "ACHN"}, "MCF7": {"test_system": "MCF7"}, "HOP-62": {"test_system": "HOP-62"}, "SW-620": {"test_system": "SW-620"}, "SNB-75": {"test_system": "SNB-75"}, "MOLT-4": {"test_system": "MOLT-4"}, "COLO 205": {"test_system": "COLO 205"}, "SR": {"test_system": "SR"}, "SK-OV-3": {"test_system": "SK-OV-3"}, "A549": {"test_system": "A549"}, "IGROV-1": {"test_system": "IGROV-1"}, "786-0": {"test_system": "786-0"}, "UACC-62": {"test_system": "UACC-62"}, "PC-3": {"test_system": "PC-3"}, "HCT-15": {"test_system": "HCT-15"}, "LOX IMVI": {"test_system": "LOX IMVI"}, "RXF 393": {"test_system": "RXF 393"}, "UO-31": {"test_system": "UO-31"}, "MDA-MB-231": {"test_system": "MDA-MB-231"}, "NCI/ADR-RES": {"test_system": "NCI/ADR-RES"}, "NCI-H226": {"test_system": "NCI-H226"}, "HCC 2998": {"test_system": "HCC 2998"}, "HCT-116": {"test_system": "HCT-116"}, "EKVX": {"test_system": "EKVX"}, "NCI-H23": {"test_system": "NCI-H23"}, "NCI-H522": {"test_system": "NCI-H522"}, "DU-145": {"test_system": "DU-145"}, "HOP-92": {"test_system": "HOP-92"}, "M14": {"test_system": "M14"}, "UACC-257": {"test_system": "UACC-257"}, "SK-MEL-5": {"test_system": "SK-MEL-5"}, "HL-60": {"test_system": "HL-60"}, "SF-268": {"test_system": "SF-268"}, "K562": {"test_system": "K562"}, "SN12C": {"test_system": "SN12C"}, "OVCAR-3": {"test_system": "OVCAR-3"}, "Malme-3M": {"test_system": "Malme-3M"}, "NCI-H460": {"test_system": "NCI-H460"}, "Hs-578T": {"test_system": "Hs-578T"}, "SK-MEL-28": {"test_system": "SK-MEL-28"}, "U-251": {"test_system": "U-251"}, "A498": {"test_system": "A498"}, "T47D": {"test_system": "T47D"}, "BT-549": {"test_system": "BT-549"}}, "note": "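Where inhibition never reached the appropriate level, the endpoint shown equals the highest concentration tested. Otherwise, values were interpolated linearly from a five-concentration, 48-hour dose response in 96-well plates. Here, GI50 denotes the concentration required for 50% inhibition of growth.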 The source made the active and inactive calls. Cut-off read from the data, not from the text of the source: active = GI50 up to about 1.1 µM and inactive = higher.", "data": [{"smiles": "COc1ccc2nc3cc([N+](=O)[O-])ccc3c(NNc3ccccc3)c2c1", "values": [{"measurement": "GI50", "setting": "SK-MEL-2", "result": "27.4 µM (inactive)"}, {"measurement": "GI50", "setting": "TK-10", "result": "2.58 µM (inactive)"}, {"measurement": "GI50", "setting": "OVCAR-4", "result": "60.7 µM (inactive)"}, {"measurement": "GI50", "setting": "MDA-MB-435", "result": "29.6 µM (inactive)"}, {"measurement": "GI50", "setting": "OVCAR-5", "result": "2.07 µM (inactive)"}, {"measurement": "GI50", "setting": "KM12", "result": "12.4 µM (inactive)"}, {"measurement": "GI50", "setting": "HT-29", "result": "13.8 µM (inactive)"}, {"measurement": "GI50", "setting": "CCRF-CEM", "result": "23.2 µM (inactive)"}, {"measurement": "GI50", "setting": "SF-539", "result": "26.8 µM (inactive)"}, {"measurement": "GI50", "setting": "MDA-N", "result": "29.5 µM (inactive)"}, {"measurement": "GI50", "setting": "SF-295", "result": "35.5 µM (inactive)"}, {"measurement": "GI50", "setting": "RPMI-8226", "result": "17.5 µM (inactive)"}, {"measurement": "GI50", "setting": "OVCAR-8", "result": "39.3 µM (inactive)"}, {"measurement": "GI50", "setting": "SNB-19", "result": "56.4 µM (inactive)"}, {"measurement": "GI50", "setting": "ACHN", "result": "30 µM (inactive)"}, {"measurement": "GI50", "setting": "MCF7", "result": "10.8 µM (inactive)"}, {"measurement": "GI50", "setting": "HOP-62", "result": "27.7 µM (inactive)"}, {"measurement": "GI50", "setting": "SW-620", "result": "17.3 µM (inactive)"}, {"measurement": "GI50", "setting": "SNB-75", "result": "49.1 µM (inactive)"}, {"measurement": "GI50", "setting": "MOLT-4", "result": "21 µM (inactive)"}, {"measurement": "GI50", "setting": "COLO 205", "result": "10.8 µM (inactive)"}, {"measurement": "GI50", "setting": "SR", "result": "14.8 µM (inactive)"}, {"measurement": "GI50", "setting": "SK-OV-3", "result": "> 73.6 µM (inactive)"}, {"measurement": "GI50", "setting": "A549", "result": "13.9 µM (inactive)"}, {"measurement": "GI50", "setting": "IGROV-1", "result": "2.93 µM (inactive)"}, {"measurement": "GI50", "setting": "786-0", "result": "18.4 µM (inactive)"}, {"measurement": "GI50", "setting": "UACC-62", "result": "2 µM (inactive)"}, {"measurement": "GI50", "setting": "PC-3", "result": "35.4 µM (inactive)"}, {"measurement": "GI50", "setting": "HCT-15", "result": 22.6, "unit": "µM"}, {"measurement": "GI50", "setting": "LOX IMVI", "result": "29 µM (inactive)"}, {"measurement": "GI50", "setting": "RXF 393", "result": "47.9 µM (inactive)"}, {"measurement": "GI50", "setting": "UO-31", "result": "31.4 µM (inactive)"}, {"measurement": "GI50", "setting": "MDA-MB-231", "result": "20.6 µM (inactive)"}, {"measurement": "GI50", "setting": "NCI/ADR-RES", "result": "31 µM (inactive)"}, {"measurement": "GI50", "setting": "NCI-H226", "result": "0.596 µM (active)"}, {"measurement": "GI50", "setting": "HCC 2998", "result": "23.2 µM (inactive)"}, {"measurement": "GI50", "setting": "HCT-116", "result": "11.4 µM (inactive)"}, {"measurement": "GI50", "setting": "EKVX", "result": "16 µM (inactive)"}, {"measurement": "GI50", "setting": "NCI-H23", "result": "34.7 µM (inactive)"}, {"measurement": "GI50", "setting": "NCI-H522", "result": "20.7 µM (inactive)"}, {"measurement": "GI50", "setting": "DU-145", "result": "42.1 µM (inactive)"}, {"measurement": "GI50", "setting": "HOP-92", "result": "19.8 µM (inactive)"}, {"measurement": "GI50", "setting": "M14", "result": "27.5 µM (inactive)"}, {"measurement": "GI50", "setting": "UACC-257", "result": "1.19 µM (inactive)"}, {"measurement": "GI50", "setting": "SK-MEL-5", "result": "16.7 µM (inactive)"}, {"measurement": "GI50", "setting": "HL-60", "result": "18.7 µM (inactive)"}, {"measurement": "GI50", "setting": "SF-268", "result": "30.8 µM (inactive)"}, {"measurement": "GI50", "setting": "K562", "result": "5.69 µM (inactive)"}, {"measurement": "GI50", "setting": "SN12C", "result": "30.2 µM (inactive)"}, {"measurement": "GI50", "setting": "OVCAR-3", "result": "30 µM (inactive)"}, {"measurement": "GI50", "setting": "Malme-3M", "result": "20.3 µM (inactive)"}, {"measurement": "GI50", "setting": "NCI-H460", "result": "11.7 µM (inactive)"}, {"measurement": "GI50", "setting": "Hs-578T", "result": "26.5 µM (inactive)"}, {"measurement": "GI50", "setting": "SK-MEL-28", "result": "77.6 µM (inactive)"}, {"measurement": "GI50", "setting": "U-251", "result": "18.7 µM (inactive)"}, {"measurement": "GI50", "setting": "A498", "result": "0.0681 µM (active)"}, {"measurement": "GI50", "setting": "T47D", "result": "26.9 µM (inactive)"}, {"measurement": "GI50", "setting": "BT-549", "result": "28.5 µM (inactive)"}]}]}
